Measured values as given in patent publication US5122520A, “Acid addition salts of amidated taurine or glycine, their preparation and use” (Sandoz Ltd., priority 1988, dated 1992).

Experiment: Bioavailability of salmon calcitonin after nasal application (plasma concentration by radio-immuno-assay)
Parameters: species or system rhesus monkeys
Details: rhesus monkey, in vivo
Procedure: The drug compound concentration was measured in the plasma by radio-immuno-assay. The salmon calcitonin determinations were carried out up to 6 hours after application.

- bioavailability as % of the value measured with the best known resorption promoter: 67%
- bioavailability as % of the values found after application without resorption promoter: > 400%
Substance: salmon calcitonin
